A short description of this data set: Conformational equilibrium of cyclic and open chain forms in aqueous solution. The data set is classed as physicochemical. The note with it: at equilibrium at pH 7.0. From the text: The open, active, inhibitory chain species is favored at low pH while the cyclized structure is favored at neutral pH. The reaction is fully reversible: the open chain becomes predominant at low pH. The open chain to cyclic species reaction involves a trans to cis isomerization of the proline and the formation of a new N—B bond. […] Cyclization liberates one equivalent of H+ thereby explaining the requirement for base in the cyclization reaction and acid in the opening reaction. […] G. Gutheil and W. W. Bachovchin, Separation of L-Pro-DL-boroPro into Its Component Diastereomers and Kinetic Analysis of Their Inhibition of Dipeptidyl Peptidase IV. A New Method for the Analysis of Slow, Tight-Binding Inhibition, Biochemistry 32, 8723-8731 (1993)).

`O=C(C1CCCN1)N1CCCC1B(O)O` (centres unmarked) [Pro-boroPro]: the “fraction existing as the open chain, inhibitory species” value is reported as “less than 1%”.

For `CC(C)C(N)C(=O)N1CCCC1B(O)O` (centres unmarked) [Val-boroPro], the “fraction existing as the open chain, inhibitory species” value is given as “less than 0.1%”.
